What was measured:
[1] = target: T1, AtMAT2 (Arabidopsis thaliana, UniProt P17562); test: X-ray crystal structure; type: binding
T1 sequence (P17562 1-392): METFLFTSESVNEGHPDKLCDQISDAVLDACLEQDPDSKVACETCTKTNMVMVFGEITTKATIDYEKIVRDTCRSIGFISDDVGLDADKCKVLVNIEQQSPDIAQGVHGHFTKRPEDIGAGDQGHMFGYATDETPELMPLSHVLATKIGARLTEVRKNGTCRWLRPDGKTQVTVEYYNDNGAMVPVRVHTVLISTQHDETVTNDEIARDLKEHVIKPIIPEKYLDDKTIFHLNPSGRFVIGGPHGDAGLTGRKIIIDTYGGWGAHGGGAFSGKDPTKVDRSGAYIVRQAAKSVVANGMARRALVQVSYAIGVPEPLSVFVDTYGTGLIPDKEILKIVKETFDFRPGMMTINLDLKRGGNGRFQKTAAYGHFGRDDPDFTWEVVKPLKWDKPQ

[2] = target: T2, AtMAT1 (Arabidopsis thaliana, UniProt P23686); test: isothermal titration calorimetry; type: binding
T2 sequence (P23686 1-393): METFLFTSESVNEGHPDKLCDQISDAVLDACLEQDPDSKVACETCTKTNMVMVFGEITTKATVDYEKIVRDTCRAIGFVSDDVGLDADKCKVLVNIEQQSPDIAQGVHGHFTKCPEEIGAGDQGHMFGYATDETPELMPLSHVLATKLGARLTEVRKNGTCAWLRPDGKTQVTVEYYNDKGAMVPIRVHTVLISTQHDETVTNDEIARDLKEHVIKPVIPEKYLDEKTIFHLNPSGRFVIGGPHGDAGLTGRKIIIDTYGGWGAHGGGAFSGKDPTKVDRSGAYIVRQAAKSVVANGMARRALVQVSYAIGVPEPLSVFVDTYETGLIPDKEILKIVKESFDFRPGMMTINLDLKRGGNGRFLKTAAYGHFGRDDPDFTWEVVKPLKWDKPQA

Kd [2]	SMILES	X-ray crystal structure (2.00 Å, soaking) [1]
	Nc1ncnc2c1ncn2[C@@H]1O[C@H](COP(=O)(O)CP(=O)(O)OP(=O)(O)O)[C@@H](O)[C@H]1O [AMPCPP]	inside the catalytic site both, precatalytic Met and the ATP analogue, AMPCPP, revealed the exact pre-reaction state of the enzyme
654 nM	NCCCCNCCCN [spermidine]	
